Source: PMC8174486, “Synthesis and preliminary structure-activity relationship study of 3-methylquinazolinone derivatives as EGFR inhibitors with enhanced antiproliferative activities against tumour cells” (Journal of Enzyme Inhibition and Medicinal Chemistry, 2021)

Key:
EGFR^wt-TK = biological target: T1, EGFR^wt-TK (Homo sapiens, UniProt P00533); assay: In vitro EGFR^wt-TK assay (ELISA); assay type: biochemical; settings: mean ± SD of three replicates
T1 construct: The recombinant EGFR^wt-TK and Antiphosphotyrosine mouse mAb were purchased from PTM Bio; purchased PTM Bio
T1 sequence (P00533 25-1210): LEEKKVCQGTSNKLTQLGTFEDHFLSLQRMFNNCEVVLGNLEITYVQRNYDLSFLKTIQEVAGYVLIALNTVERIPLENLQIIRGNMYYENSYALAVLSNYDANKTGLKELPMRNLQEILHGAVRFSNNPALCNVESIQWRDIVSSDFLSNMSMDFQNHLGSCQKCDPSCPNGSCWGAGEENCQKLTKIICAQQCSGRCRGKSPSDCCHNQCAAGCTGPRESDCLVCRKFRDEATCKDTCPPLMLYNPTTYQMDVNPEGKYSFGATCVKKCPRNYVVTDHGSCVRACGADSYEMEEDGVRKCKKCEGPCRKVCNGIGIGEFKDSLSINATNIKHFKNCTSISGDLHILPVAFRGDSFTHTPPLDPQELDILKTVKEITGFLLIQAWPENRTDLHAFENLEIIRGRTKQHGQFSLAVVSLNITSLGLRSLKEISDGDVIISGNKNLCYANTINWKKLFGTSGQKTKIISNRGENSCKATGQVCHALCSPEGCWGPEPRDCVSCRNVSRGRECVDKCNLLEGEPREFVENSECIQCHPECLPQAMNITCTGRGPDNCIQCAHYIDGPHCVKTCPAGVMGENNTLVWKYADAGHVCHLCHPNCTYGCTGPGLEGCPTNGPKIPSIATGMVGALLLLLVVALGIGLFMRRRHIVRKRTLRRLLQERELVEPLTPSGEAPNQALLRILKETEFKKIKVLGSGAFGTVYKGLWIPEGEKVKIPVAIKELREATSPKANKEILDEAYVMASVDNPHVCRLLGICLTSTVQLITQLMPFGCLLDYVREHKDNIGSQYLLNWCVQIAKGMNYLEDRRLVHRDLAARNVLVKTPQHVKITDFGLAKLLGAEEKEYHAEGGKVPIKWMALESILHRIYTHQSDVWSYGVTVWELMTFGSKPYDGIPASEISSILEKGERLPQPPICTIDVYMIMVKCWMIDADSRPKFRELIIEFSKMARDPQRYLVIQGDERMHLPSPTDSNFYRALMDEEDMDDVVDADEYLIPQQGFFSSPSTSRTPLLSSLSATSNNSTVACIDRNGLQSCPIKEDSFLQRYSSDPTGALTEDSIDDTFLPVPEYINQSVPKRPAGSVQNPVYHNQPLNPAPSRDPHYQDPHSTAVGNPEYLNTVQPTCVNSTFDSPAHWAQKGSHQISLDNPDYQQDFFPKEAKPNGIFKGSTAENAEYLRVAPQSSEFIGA
Description: Enzymatic inhibition of synthesised compounds against wild type EGFR tyrosine kinase was determined with enzyme-linked immunosorbent assays (ELISAs) as our previous methods. The recombinant EGFR^wt-TK and Antiphosphotyrosine mouse mAb were purchased from PTM Bio. The IC50 value was determined from a sigmoid dose − response curve using Graph-Pad Prism (GraphPad Software, San Diego, CA).

A549 cells = assay: MTT antiproliferative assay, A549; assay type: cell-based; settings: Homo sapiens, mean ± SD of three replicates
Description: (§1) A431 (Human epidermoid carcinoma cell line) cell, A549 (Human non-small cell lung cancer cell line) cell, MCF-7 (Human breast adenocarcinoma cell line) cell, and NCI-H1975 (Human non-small cell lung cancer cell line) cell were purchased from the Shanghai Cell Bank of the Chinese Academy of Sciences. NRK-52E (Normal rat kidney cell line) cell was donated by Guizhou Medical University.
(§2) The IC50 value was determined from a sigmoid dose − response curve using Graph-Pad Prism (GraphPad Software, San Diego, CA).

A431 cells = assay: MTT antiproliferative assay, A431; assay type: cell-based, human; settings: mean ± SD of three replicates
Description: as §1, §2

NCI-H1975 cells = assay: MTT antiproliferative assay, NCI-H1975; assay type: cell-based; settings: Homo sapiens, mean ± SD of three replicates
Description: as §1, §2

MCF-7 cells [1] = assay: MTT antiproliferative assay, MCF-7; assay type: cell-based; settings: Homo sapiens, MCF7, mean ± SD of three replicates
Description: as §1, §2

MCF-7 cells [2] = assay: Cell apoptosis analysis (Annexin V-FITC/PI flow cytometry); assay type: cell-based, human; settings: MCF-7, 5 μM, 48 h
MCF-7 cells [3] = assay: Cell cycle analysis (flow cytometry); assay type: cell-based, human; settings: MCF-7, 5 μM, 48 h
[4] = Stability in mice plasma (HPLC); assay type: in vitro ADME; settings: 37 °C, 60 min
Description: HPLC procedures and spectra
A 2.5 mL centrifuge tube was added 300 µL plasma derived from normal […] (7 weeks, male), and 30 µL compound A or compound 4d in ethanol (50 mM). The mixture was incubated at 37 °C for 60 min, and then treated with 300 µL of CH3CN, separated in centrifugation at 30000 rpm for 10 min. The supernatant was treated with the same procedure for another time and analyzed in HPLC using C18 column (4.6 mm x 250 mm) and mobile phase of CH3CN/H2O (90 : 10) with a flow rate of 1.5 mL/min.
Fig. S1 Metabolic stability in plasma of compound A
Fig. S2 Metabolic stability in plasma of compound 4d […]

SMILES | IC50 (EGFR^wt-TK) [µM] | IC50 (A549 cells) [µM] | IC50 (A431 cells; Homo sapiens, A-431, MTT) [µM] | melting point [°C] | IC50 (NCI-H1975 cells) [µM] | IC50 (MCF-7 cells [1]) [µM] | purity after incubation with mice plasma ([4]; Sprague Dawley (SD) mice plasma) | stability in mice plasma ([4]; SD mice plasma) | IC50 (A431 cells; MTT) [µM] | ratio of apoptotic cells (late) (MCF-7 cells [2]) [%] | percentage of cells in G2/M (MCF-7 cells [3]) [%]
Cn1c(COc2ccc(/C=C/C(=O)c3cccc(F)c3)cc2)nc2ccccc2c1=O [Compound 4a, (E)-2-((4–(3-(3-Fluorophenyl)-3-oxoprop-1-enyl)phenoxy)methyl)-3-methylquinazolin-4(3H)-one] | 2.71 ± 0.22 | 8.63 ± 0.41 | 9.32 ± 0.57 | 208 to 209 | 13.7 ± 1.61 | 10.6 ± 1.03 |  |  |  |  | 
Cn1c(COc2ccc(NC(=O)c3ccc(F)c(F)c3)cc2)nc2ccccc2c1=O [Compound 4e, 3,4-Difluoro-N-(4-((3-methyl-4-oxo-3,4-dihydroquinazolin-2-yl)methoxy)phenyl)benzamide] | 0.061 ± 0.007 | 2.69 ± 0.32 | 3.53 ± 0.34 | 248 to 249 | 7.18 ± 0.49 | 0.96 ± 0.21 |  |  |  |  | 
Cn1c(COc2ccc(/C=C/c3cccc(F)c3)cc2)nc2ccccc2c1=O [Compound 4c, (E)-2-((4-(3-Fluorostyryl)phenoxy)methyl)-3-methylquinazolin-4(3H)-one] | 0.2 ± 0.041 | 4.26 ± 0.57 | 6.79 ± 0.72 | 160 to 162 | 6.44 ± 0.85 | 6.04 ± 0.73 |  |  |  |  | 
COc1cc2ncnc(Nc3ccc(F)c(Cl)c3)c2cc1OCCCN1CCOCC1 [Gefitinib, reference compound] |  |  |  |  |  |  |  |  |  |  | 11.58
Cn1c(COc2ccc(/C=N/c3cccc(F)c3)cc2)nc2ccccc2c1=O [A, reference compound] |  | 17.9 ± 2.11 | 17.7 ± 2.08 |  | 19.2 ± 3.02 | 14.1 ± 1.85 |  | not stable |  |  | 
Cn1c(COc2ccc(NC(=O)/C=C/c3ccc(F)c(F)c3)cc2)nc2ccccc2c1=O [Compound 4f, (E)-3-(3,4-Difluorophenyl)-N-(4-((3-methyl-4-oxo-3,4-dihydroquinazolin-2-yl)methoxy)phenyl)acrylamide] | 0.38 ± 0.075 | 8.46 ± 0.67 | 8.76 ± 0.74 | 235 to 236 | 9.33 ± 0.78 | 2.84 ± 0.22 |  |  |  |  | 

The next lines start with results.

IC50 (EGFR^wt-TK) [µM] | IC50 (A549 cells) [µM] | IC50 (A431 cells; Homo sapiens, A-431, MTT) [µM] | melting point [°C] | IC50 (NCI-H1975 cells) [µM] | IC50 (MCF-7 cells [1]) [µM] | purity after incubation with mice plasma ([4]; Sprague Dawley (SD) mice plasma) | stability in mice plasma ([4]; SD mice plasma) | IC50 (A431 cells; MTT) [µM] | SMILES | ratio of apoptotic cells (late) (MCF-7 cells [2]) [%] | percentage of cells in G2/M (MCF-7 cells [3]) [%]
0.053 ± 0.008 | 2.55 ± 0.26 | 3.48 ± 0.49 | 228 to 229 | 6.42 ± 0.47 | 0.87 ± 0.14 | higher than 98% |  |  | Cn1c(COc2ccc(NC(=O)c3cccc(F)c3)cc2)nc2ccccc2c1=O [Compound 4d, 3-Fluoro-N-(4-((3-methyl-4-oxo-3,4-dihydroquinazolin-2-yl)methoxy)phenyl)benzamide] | 41.36 | 10.38
1.63 ± 0.15 | 9.08 ± 0.69 | 8.72 ± 0.46 | 196 to 197 | 12.9 ± 1.44 | 9.64 ± 0.88 |  |  |  | Cn1c(COc2ccc(C(=O)Nc3cccc(F)c3)cc2)nc2ccccc2c1=O [Compound 4b, N-(3-Fluorophenyl)-4-((3-methyl-4-oxo-3,4-dihydroquinazolin-2-yl)methoxy)benzamide] |  | 
0.71 ± 0.093 | 7.31 ± 0.59 | 8.34 | 195 to 196 | 10.2 ± 1.03 | 10.7 ± 2.07 |  |  | 8.35 ± 0.46 | Cn1c(COc2ccc(NC(=O)Nc3cccc(F)c3)cc2)nc2ccccc2c1=O [Compound 4g, 1-(3-Fluorophenyl)-3-(4-((3-methyl-4-oxo-3,4-dihydroquinazolin-2-yl)methoxy)phenyl)urea] |  | 
